This experiment has as its target Transient receptor potential cation channel subfamily A member 1 (Homo sapiens, UniProt O75762). The experiment in a line: FLIPR Assay: The IC50 (effective concentration) of compounds on the human and rat TRPA1 channels were determined using a FLIPR Tetra instrument. CHO cells expressing TRPA1 were plated into 384-well plates, incubated overnight at 37° C., and loaded with BD calcium indicator dye for 1 hr at 37° C. followed by 15 minutes at room temperature. The assay buffer was Hank's Balanced Salt Solution (HBSS) containing 20 mM HEPES (pH readjusted to 7.4) along with 0.02% BSA.Following dye load and plate cool down, compounds were added to the cells using FLIPR Tetra. Plates were then incubated with compounds for 20 minutes at room temperature prior to adding agonist. […] Fixing the Hill coefficient will generally reduce variability of the IC50 determination. The IC50 results were individually examined to make sure the MIN and MAX points were set correctly prior to validation of the results.

Chain of Transient receptor potential cation channel subfamily A member 1 (O75762 whole entry): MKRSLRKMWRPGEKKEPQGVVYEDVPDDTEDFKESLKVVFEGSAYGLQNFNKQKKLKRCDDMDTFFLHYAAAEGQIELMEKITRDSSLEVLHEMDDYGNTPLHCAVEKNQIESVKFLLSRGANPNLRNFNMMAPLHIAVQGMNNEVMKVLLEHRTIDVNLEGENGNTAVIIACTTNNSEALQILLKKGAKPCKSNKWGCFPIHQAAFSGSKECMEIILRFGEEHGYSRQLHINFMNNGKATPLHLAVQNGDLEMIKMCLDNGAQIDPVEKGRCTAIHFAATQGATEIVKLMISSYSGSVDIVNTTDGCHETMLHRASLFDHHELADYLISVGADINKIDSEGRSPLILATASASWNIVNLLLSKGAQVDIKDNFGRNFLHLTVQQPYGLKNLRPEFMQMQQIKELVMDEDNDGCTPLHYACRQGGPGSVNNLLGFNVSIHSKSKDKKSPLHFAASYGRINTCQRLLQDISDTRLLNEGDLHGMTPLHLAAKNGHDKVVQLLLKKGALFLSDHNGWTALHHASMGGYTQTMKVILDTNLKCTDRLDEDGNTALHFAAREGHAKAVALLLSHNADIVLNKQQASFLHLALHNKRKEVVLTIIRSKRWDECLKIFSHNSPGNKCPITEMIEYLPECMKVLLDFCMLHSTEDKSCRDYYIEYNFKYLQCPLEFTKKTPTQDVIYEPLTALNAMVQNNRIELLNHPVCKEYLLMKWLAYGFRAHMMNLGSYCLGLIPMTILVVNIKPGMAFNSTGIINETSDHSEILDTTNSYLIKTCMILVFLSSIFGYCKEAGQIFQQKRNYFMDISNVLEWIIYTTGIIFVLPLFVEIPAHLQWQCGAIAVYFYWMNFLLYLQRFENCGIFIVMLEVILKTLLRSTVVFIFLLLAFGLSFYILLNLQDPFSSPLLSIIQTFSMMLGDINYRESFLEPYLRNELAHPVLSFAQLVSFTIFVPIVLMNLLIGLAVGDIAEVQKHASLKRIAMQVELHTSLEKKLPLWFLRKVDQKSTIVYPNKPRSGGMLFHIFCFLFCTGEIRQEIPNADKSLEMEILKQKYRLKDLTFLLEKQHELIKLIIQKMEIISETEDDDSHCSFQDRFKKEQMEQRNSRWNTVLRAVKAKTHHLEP

As for `Cn1nc(C#N)c2ncn(Cc3nn(CCc4ccc(Cl)cc4)c(=O)o3)c(=O)c21`, the IC50 is 100 nM.

The IC50 is the concentration needed to halve the response being measured.

The values above are taken from ChEMBL document CHEMBL5728262, “Oxadiazolones as transient receptor potential channel inhibitors” (2021).
